Measurements taken from PMC3014437 (Bioorganic & medicinal chemistry, 2010).

Tested on: LPS-induced iNOS-dependent NO production
Test: LPS-induced NO production
Assay type: cell-based, murine
Settings: Mus musculus, read-out: IC50 (µM) in NOS

Row | SMILES | IC50
1 | C=C(C)C#Cc1c(C)c(OC)c(OC)c2c1OCO2 [Compound 2, Benzocamphorin B] | 12.1 µM
2 | COc1cc(C)c(OC)c2c1OCO2 [Compound 8, 4,7-dimethoxy-5-methyl-1,3-benzodioxole] | 29.1 ± 4.4 µM
3 | C=C(CC[C@@H](C)[C@H]1CC[C@H]2C3=C(C(=O)C[C@]12C)[C@@]1(C)CC[C@@H](O)[C@](C)(O)[C@@H]1C[C@@H]3O)C(C)C(=O)O (stereo partly shown) [Compound 32, antcin K] | > 50 µM
4 | CC(C)[C@@H](C)/C=C/[C@@H](C)[C@H]1CC[C@@H]2[C@]1(C)CC[C@H]1[C@]23C=C[C@]2(C[C@@H](O)CC[C@]12C)OO3 [Compound 37, ergosterol peroxide] | 6.3 ± 1.8 µM
